{"source": "paper PMC7782793", "about": "“Hydroxamic acid-modified peptide microarrays for profiling isozyme-selective interactions and inhibition of histone deacetylases” (Nature Communications, 2021)", "key": {"HDAC1 [1]": {"molecular_target": "T1, HDAC1 (Homo sapiens, UniProt Q13547)", "T1 construct": "HDAC1 (full length, C-terminal His tag, C-terminal FLAG tag, BPS Bioscience, cat. #: 50051); FLAG (C); purchased BPS Bioscience 50051", "T1 sequence (Q13547 whole entry)": "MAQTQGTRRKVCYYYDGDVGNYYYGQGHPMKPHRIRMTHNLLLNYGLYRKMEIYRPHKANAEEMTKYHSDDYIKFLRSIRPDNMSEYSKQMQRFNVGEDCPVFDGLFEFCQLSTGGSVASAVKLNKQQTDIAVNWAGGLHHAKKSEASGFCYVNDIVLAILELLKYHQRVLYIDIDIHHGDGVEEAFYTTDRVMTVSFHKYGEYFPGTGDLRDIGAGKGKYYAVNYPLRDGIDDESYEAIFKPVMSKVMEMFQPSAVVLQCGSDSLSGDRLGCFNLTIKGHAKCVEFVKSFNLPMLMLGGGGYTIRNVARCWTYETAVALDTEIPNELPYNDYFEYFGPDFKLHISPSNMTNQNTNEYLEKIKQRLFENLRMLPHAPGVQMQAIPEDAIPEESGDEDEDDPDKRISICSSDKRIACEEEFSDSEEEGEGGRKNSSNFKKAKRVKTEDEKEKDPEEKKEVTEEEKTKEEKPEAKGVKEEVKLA", "assay": "Recombinant HDAC µSPOT microarray binding assay"}, "HDAC3/NCoR2 [2]": {"molecular_target": "T2, HDAC3/NCoR2 (Homo sapiens, UniProt O15379)", "T2 construct": "HDAC3/NCoR2 (full length, C-terminal His tag, NCoR2 N-terminal GST tag); purchased BPS Bioscience 50003", "T2 sequence (O15379 whole entry)": "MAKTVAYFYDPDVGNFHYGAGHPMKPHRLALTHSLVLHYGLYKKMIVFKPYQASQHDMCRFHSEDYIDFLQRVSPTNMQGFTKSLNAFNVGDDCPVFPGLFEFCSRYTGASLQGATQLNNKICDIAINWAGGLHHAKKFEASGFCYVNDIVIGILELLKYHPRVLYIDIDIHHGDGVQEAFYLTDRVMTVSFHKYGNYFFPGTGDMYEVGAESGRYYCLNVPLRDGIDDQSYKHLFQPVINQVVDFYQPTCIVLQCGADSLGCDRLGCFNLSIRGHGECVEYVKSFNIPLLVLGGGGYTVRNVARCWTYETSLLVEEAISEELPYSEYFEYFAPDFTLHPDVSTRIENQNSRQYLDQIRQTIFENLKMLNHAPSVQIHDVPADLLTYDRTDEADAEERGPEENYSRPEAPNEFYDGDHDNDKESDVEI", "T2 sequence (Q9Y618 389-480 partner limits assumed)": "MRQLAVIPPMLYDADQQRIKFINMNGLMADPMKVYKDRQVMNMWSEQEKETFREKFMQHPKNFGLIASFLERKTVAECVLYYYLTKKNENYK", "assay": "Recombinant HDAC µSPOT microarray binding assay"}, "HDAC1 [3]": {"molecular_target": "T1, HDAC1", "assay": "HDAC inhibition assay (fluorogenic, Ac-Leu-Gly-Lys(Ac)-AMC)", "format": "biochemical", "details": "for HDAC1 dose-response data (relative enzyme activity), Fig. 6 + S. Fig. 10: duplicate columns"}, "HDAC2": {"molecular_target": "T3, HDAC2 (Homo sapiens, UniProt Q92769)", "T3 construct": "HDAC2 (full length, C-terminal His tag, BPS Bioscience, cat. #: 50002); purchased BPS Bioscience 50002", "T3 sequence (Q92769 whole entry)": "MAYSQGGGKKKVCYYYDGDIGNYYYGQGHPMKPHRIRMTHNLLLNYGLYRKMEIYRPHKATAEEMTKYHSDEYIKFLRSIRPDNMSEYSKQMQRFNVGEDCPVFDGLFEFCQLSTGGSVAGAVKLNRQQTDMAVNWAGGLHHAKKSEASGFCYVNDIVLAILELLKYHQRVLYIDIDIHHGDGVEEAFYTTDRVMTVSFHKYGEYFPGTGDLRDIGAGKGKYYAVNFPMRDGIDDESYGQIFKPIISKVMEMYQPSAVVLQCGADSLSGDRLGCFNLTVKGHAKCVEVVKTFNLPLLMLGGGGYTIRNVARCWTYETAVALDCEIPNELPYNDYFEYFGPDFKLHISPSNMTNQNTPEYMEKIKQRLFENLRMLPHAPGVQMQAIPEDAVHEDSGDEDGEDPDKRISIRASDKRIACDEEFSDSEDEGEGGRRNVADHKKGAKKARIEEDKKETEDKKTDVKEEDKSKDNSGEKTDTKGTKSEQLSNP", "assay": "HDAC inhibition assay (fluorogenic, Ac-Leu-Gly-Lys(Ac)-AMC)", "format": "biochemical", "details": "for HDAC2 dose-response data (relative enzyme activity), Fig. 6 + S. Fig. 10: duplicate columns"}, "HDAC3/NCoR2 [4]": {"molecular_target": "T2, HDAC3/NCoR2", "assay": "HDAC inhibition assay (fluorogenic, Ac-Leu-Gly-Lys(Ac)-AMC)", "format": "biochemical", "details": "for HDAC3 dose-response data (relative enzyme activity), Fig. 6 + S. Fig. 10: duplicate columns"}, "HDAC8": {"molecular_target": "T4, HDAC8 (Homo sapiens, UniProt Q9BY41)", "T4 construct": "HDAC8 (full length, C-terminal His tag, BPS Bioscience, cat. #: 50008); purchased BPS Bioscience 50008", "T4 sequence (Q9BY41 1-377)": "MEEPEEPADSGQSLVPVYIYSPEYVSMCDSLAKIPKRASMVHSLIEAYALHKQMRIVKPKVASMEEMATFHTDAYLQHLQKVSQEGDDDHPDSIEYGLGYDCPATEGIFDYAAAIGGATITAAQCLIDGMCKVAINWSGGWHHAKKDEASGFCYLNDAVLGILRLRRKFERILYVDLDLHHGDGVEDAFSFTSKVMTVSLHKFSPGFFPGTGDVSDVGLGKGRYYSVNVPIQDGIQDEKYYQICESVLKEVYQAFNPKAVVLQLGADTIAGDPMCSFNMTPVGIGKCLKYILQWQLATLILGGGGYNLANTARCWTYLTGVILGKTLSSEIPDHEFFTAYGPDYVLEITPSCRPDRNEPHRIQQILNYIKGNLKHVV", "assay": "HDAC inhibition assay (fluorogenic, Ac-Leu-Gly-Lys(Tfa)-AMC)", "format": "biochemical", "details": "for HDAC8 dose-response data (relative enzyme activity, replicate values), Fig. 6 + S. Fig. 10: two replicate columns per inhibitor; for HDAC8 dose-response data (relative enzyme activity), Fig. 6 + S. Fig. 10: duplicate columns"}, "HDAC4": {"molecular_target": "T5, HDAC4 (Homo sapiens, UniProt P56524)", "T5 construct": "purchased BPS Bioscience 50004", "T5 sequence (P56524 627-1084)": "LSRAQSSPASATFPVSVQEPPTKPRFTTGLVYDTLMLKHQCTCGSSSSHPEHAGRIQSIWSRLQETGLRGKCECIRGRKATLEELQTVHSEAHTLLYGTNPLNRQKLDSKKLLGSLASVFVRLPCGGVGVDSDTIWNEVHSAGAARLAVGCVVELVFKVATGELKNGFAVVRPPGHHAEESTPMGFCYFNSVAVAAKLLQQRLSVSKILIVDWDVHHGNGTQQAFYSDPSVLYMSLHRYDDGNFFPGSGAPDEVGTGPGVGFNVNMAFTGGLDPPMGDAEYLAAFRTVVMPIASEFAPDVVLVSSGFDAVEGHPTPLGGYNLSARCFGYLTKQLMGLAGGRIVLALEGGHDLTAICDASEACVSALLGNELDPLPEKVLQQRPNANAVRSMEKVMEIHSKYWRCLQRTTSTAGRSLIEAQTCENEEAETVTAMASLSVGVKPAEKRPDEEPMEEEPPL", "assay": "HDAC inhibition assay (fluorogenic, Ac-Leu-Gly-Lys(Tfa)-AMC)", "format": "biochemical", "details": "2 internal replicates"}, "[5]": {"details": "log[inhibitor(M)] -10,5850266520292*, whole line marked with asterisks"}}, "note": "“And” between values parts separate entries of the source, which are not always exact repeats. Equal entries are not always repeated. Marks after values point to notes of the source that are not given here. Non-standard residues stand in square brackets, D forms with d. Residues, ends and D or L forms follow the SMILES beside them. *: point of attachment. Asu = N[C@@H](CCCCCC(=O)O)C(=O)O; NHOH = ON*", "data": [{"smiles": "CC(=O)N[C@@H](CC(C)C)C(=O)NCC(=O)N[C@@H](CCCCN)C(=O)NCC(=O)NCC(=O)N[C@@H](C)C(=O)N[C@@H](CCCCCC(=O)NO)C(=O)N[C@@H](CCCNC(=N)N)C(=O)N[C@@H](Cc1c[nH]cn1)C(=O)N[C@@H](CCCNC(=N)N)C(=O)N[C@@H](CCCCN)C(=O)N[C@H](C(=O)N[C@@H](CC(C)C)C(=O)N[C@@H](CCCNC(=N)N)C(=O)N[C@@H](CC(=O)O)C(=O)N[C@@H](CC(N)=O)C(=O)N[C@@H](Cc1c[nH]c2ccccc12)C(N)=O)C(C)C", "note": "[16a] (Ac-LGKGGA[Asu](NHOH)RHRKVLRDNW-NH2)", "values": [{"measurement": "EC50", "setting": "HDAC1 [1]", "result": 12.6, "unit": "nM"}, {"measurement": "EC50", "setting": "HDAC3/NCoR2 [2]", "result": 3.24, "unit": "nM"}, {"measurement": "Ki", "setting": "HDAC1 [3]", "result": "15.7 ± 0.2", "unit": "nM"}, {"measurement": "HDAC1 dose-response data (relative enzyme activity), Fig. 6 + S. Fig. 10", "setting": "HDAC1 [3]; log[inhibitor(M)] -6.39794", "result": "20.1917 and 18.7736"}, {"measurement": "HDAC1 dose-response data (relative enzyme activity), Fig. 6 + S. Fig. 10", "setting": "HDAC1 [3]; log[inhibitor(M)] -7.09691", "result": "58.4856 and 48.5202"}, {"measurement": "HDAC1 dose-response data (relative enzyme activity), Fig. 6 + S. Fig. 10", "setting": "HDAC1 [3]; log[inhibitor(M)] -7.79588", "result": "83.6845 and 79.5184"}, {"measurement": "HDAC1 dose-response data (relative enzyme activity), Fig. 6 + S. Fig. 10", "setting": "HDAC1 [3]; log[inhibitor(M)] -8.49485", "result": "104.354 and 102.416"}, {"measurement": "HDAC1 dose-response data (relative enzyme activity), Fig. 6 + S. Fig. 10", "setting": "HDAC1 [3]; log[inhibitor(M)] -9.19382", "result": "117.259 and 104.242"}, {"measurement": "HDAC1 dose-response data (relative enzyme activity), Fig. 6 + S. Fig. 10", "setting": "HDAC1 [3]; log[inhibitor(M)] -9.89279", "result": "112.284 and 97.8893"}, {"measurement": "HDAC1 dose-response data (relative enzyme activity), Fig. 6 + S. Fig. 10", "setting": "HDAC1 [3]; [5]", "result": "104,006* and 95,9789*"}, {"measurement": "HDAC2 dose-response data (relative enzyme activity), Fig. 6 + S. Fig. 10", "setting": "HDAC2; log[inhibitor(M)] -7.79588", "result": "97.4067 and 92.3774"}, {"measurement": "HDAC2 dose-response data (relative enzyme activity), Fig. 6 + S. Fig. 10", "setting": "HDAC2; [5]", "result": "106,147* and 102,092*"}, {"measurement": "Ki", "setting": "HDAC2; resynthesized peptide in solution, Cheng-Prusoff, n = 2", "result": "18.3 ± 0.3", "unit": "nM"}, {"measurement": "Ki", "setting": "HDAC3/NCoR2 [4]", "result": "2.22 ± 0.02", "unit": "nM"}, {"measurement": "HDAC3 dose-response data (relative enzyme activity), Fig. 6 + S. Fig. 10", "setting": "HDAC3/NCoR2 [4]; log[inhibitor(M)] -4.30103", "result": "0.4175 and 0.3694"}, {"measurement": "HDAC3 dose-response data (relative enzyme activity), Fig. 6 + S. Fig. 10", "setting": "HDAC3/NCoR2 [4]; log[inhibitor(M)] -5", "result": "1.3048 and 1.953"}, {"measurement": "HDAC3 dose-response data (relative enzyme activity), Fig. 6 + S. Fig. 10", "setting": "HDAC3/NCoR2 [4]; log[inhibitor(M)] -5.69897", "result": "3.445 and 2.8496"}, {"measurement": "HDAC3 dose-response data (relative enzyme activity), Fig. 6 + S. Fig. 10", "setting": "HDAC3/NCoR2 [4]; log[inhibitor(M)] -6.39794", "result": "11.0647 and 10.1847"}, {"measurement": "HDAC3 dose-response data (relative enzyme activity), Fig. 6 + S. Fig. 10", "setting": "HDAC3/NCoR2 [4]; log[inhibitor(M)] -7.09691", "result": "22.9645 and 23.8522"}, {"measurement": "HDAC3 dose-response data (relative enzyme activity), Fig. 6 + S. Fig. 10", "setting": "HDAC3/NCoR2 [4]; log[inhibitor(M)] -7.79588", "result": "45.6159 and 50.9763"}, {"measurement": "HDAC3 dose-response data (relative enzyme activity), Fig. 6 + S. Fig. 10", "setting": "HDAC3/NCoR2 [4]; log[inhibitor(M)] -8.49485", "result": "73.3299 and 73.9314"}, {"measurement": "HDAC3 dose-response data (relative enzyme activity), Fig. 6 + S. Fig. 10", "setting": "HDAC3/NCoR2 [4]; log[inhibitor(M)] -9.19382", "result": "93.2672 and 99.1029"}, {"measurement": "HDAC3 dose-response data (relative enzyme activity), Fig. 6 + S. Fig. 10", "setting": "HDAC3/NCoR2 [4]; log[inhibitor(M)] -9.89279", "result": "96.9207 and 113.14"}, {"measurement": "HDAC3 dose-response data (relative enzyme activity), Fig. 6 + S. Fig. 10", "setting": "HDAC3/NCoR2 [4]; [5]", "result": "99,4259* and 104,433*"}, {"measurement": "Ki", "setting": "HDAC8", "result": "3960 ± 30", "unit": "nM"}, {"measurement": "HDAC8 dose-response data (relative enzyme activity, replicate values), Fig. 6 + S. Fig. 10", "setting": "HDAC8; Inhibitor conc [M] -8.49485 (log)", "result": "105.989 and 103.599"}, {"measurement": "HDAC8 dose-response data (relative enzyme activity, replicate values), Fig. 6 + S. Fig. 10", "setting": "HDAC8; Inhibitor conc [M] -9.19382 (log)", "result": "103.027 and 101.95"}, {"measurement": "HDAC8 dose-response data (relative enzyme activity, replicate values), Fig. 6 + S. Fig. 10", "setting": "HDAC8; Inhibitor conc [M] given as -7.09691 (log)", "result": "102.108 and 99.2954"}, {"measurement": "HDAC8 dose-response data (relative enzyme activity, replicate values), Fig. 6 + S. Fig. 10", "setting": "HDAC8; Inhibitor conc [M] given as -7.79588 (log)", "result": "104.22 and 100.942"}, {"measurement": "HDAC8 dose-response data (relative enzyme activity, replicate values), Fig. 6 + S. Fig. 10", "setting": "HDAC8; Inhibitor conc [M] given as -9.89279 (log)", "result": "101.805 and 102.182"}, {"measurement": "HDAC8 dose-response data (relative enzyme activity, replicate values), Fig. 6 + S. Fig. 10", "setting": "HDAC8; Inhibitor conc [M] given as -10.585 (log)", "result": "101,084* and 101,486*"}, {"measurement": "HDAC8 dose-response data (relative enzyme activity), Fig. 6 + S. Fig. 10", "setting": "HDAC8; Inhibitor conc [M] -4.30103", "result": "9.568 and 11.2045"}, {"measurement": "HDAC8 dose-response data (relative enzyme activity), Fig. 6 + S. Fig. 10", "setting": "HDAC8; Inhibitor conc [M] -5", "result": "36.7683 and 38.5294"}, {"measurement": "HDAC8 dose-response data (relative enzyme activity), Fig. 6 + S. Fig. 10", "setting": "HDAC8; Inhibitor conc [M] -5.69897", "result": "76.0846 and 76.9796"}, {"measurement": "HDAC8 dose-response data (relative enzyme activity), Fig. 6 + S. Fig. 10", "setting": "HDAC8; Inhibitor conc [M] -6.39794", "result": "95.2833 and 94.1446"}, {"measurement": "residual enzymatic activity relative to control wells", "setting": "HDAC4; inhibitor 5 µM", "result": 96.58}, {"measurement": "remaining activity at 5 µM", "setting": "HDAC4; inhibitor 5 µM, read-out: residual enzymatic activity relative to control wells", "result": 93.6, "unit": "%"}, {"measurement": "residual enzymatic activity relative to control wells", "setting": "HDAC4; inhibitor 50 µM", "result": 68.39}, {"measurement": "remaining activity at 50 µM", "setting": "HDAC4; inhibitor 50 µM, read-out: residual enzymatic activity relative to control wells", "result": 67.1, "unit": "%"}]}]}
